# Source: patent publication US10933056B2, “3-(1H-pyrazol-4-yl)pyridine allosteric modulators of the M4 muscarinic acetylcholine receptor” (Merck Sharp & Dohme Corp., priority 2015, dated 2021)
# Target: T1, human M4 muscarinic acetylcholine receptor (Homo sapiens, UniProt P08173)
# T1 construct: expressed in transfected cells; host or cells: CHO-K1
# T1 sequence (P08173 1-479): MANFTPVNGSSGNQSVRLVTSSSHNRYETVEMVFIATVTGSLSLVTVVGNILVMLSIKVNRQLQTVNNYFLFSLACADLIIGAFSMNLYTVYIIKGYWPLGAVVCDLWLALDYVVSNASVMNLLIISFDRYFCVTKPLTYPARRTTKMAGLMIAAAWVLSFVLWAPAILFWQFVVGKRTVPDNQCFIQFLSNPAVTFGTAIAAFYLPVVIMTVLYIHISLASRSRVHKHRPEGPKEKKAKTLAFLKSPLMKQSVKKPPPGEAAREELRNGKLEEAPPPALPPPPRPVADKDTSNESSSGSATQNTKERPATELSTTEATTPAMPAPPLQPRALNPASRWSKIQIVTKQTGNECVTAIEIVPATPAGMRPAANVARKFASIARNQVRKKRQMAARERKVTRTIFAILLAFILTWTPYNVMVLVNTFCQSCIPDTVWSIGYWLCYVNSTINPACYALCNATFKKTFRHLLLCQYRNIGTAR
# Assay: human FLIPR-based M4 PAM assay (calcium mobilization in CHO-K1 cells with human M4 receptor and Gαqi5)
# Format: cell-based
# Conditions: inflection point of dose response curve, acetylcholine at 20% of maximum response, FLIPR Tetra, read-out: M4 PAM IP
# Protocol: (§1) In a typical experiment the M4 muscarinic acetylcholine receptor modulating activity of the compounds of the present invention was determined in accordance with the following experimental method. CHO-K1 cells stably transfected with human M4 receptor and chimeric G-protein Gαqi5 (Coward P, et al., Analytical Biochemistry, 270:242-248 (1999)) are thawed from liquid N2 storage, resuspended in growth medium, plated in black, clear bottom 384 well plates, and incubated 16-20 hours at 37° C., 5% CO2. On the day of assay, growth medium is removed, the cells are washed 2 times with wash buffer, and cells are incubated in dye loading buffer at 37° C., 5% CO2 for ˜1 hour. Following dye loading the cell plates are placed in a FLIPR Tetra instrument and while monitoring dye fluorescence (excitation […]), 10 uL of test substance at increasing concentrations is added, and fluorescence values are recorded for 4 min. Next, 10 uL of acetylcholine is added (final concentration calculated so as to achieve 20% of the maximum acetycholine response), and the fluorescence reading is continued for 3.5 min. In some cases, a third addition of acetylcholine (final concentration calculated to achieve 70% of the maximal acetylcholine response) is performed. The resulting dose response curves are fit to a 4 parameter logistic equation and the final result is determined as the inflection point (IP) of the curve
# as §1, with “CHO-K1” for “In a typical experiment the M4 muscarinic acetylcholine receptor modulating activity of the compounds of the present invention was determined in accordance with the following experimental method. CHO-K1”, “Gαqi5” for “Gαqi5 (Coward P, et al., Analytical Biochemistry, 270:242-248 (1999))”, “performed.” for “performed. The resulting dose response curves are fit to a 4 parameter logistic equation and the final result is determined as the inflection point (IP) of the curve”
row,EC50 [µM],SMILES
1,0.067,"CC1(Cn2cc(-c3cc4c(nc3-c3cnc5c(c3)C(=O)N(CC3CC3)C5)[C@H](F)CC4)cn2)CCCC1 (single isomer, unassigned) [Example 1A]"
2,0.075,"CC1(Cn2cc(-c3cc4c(nc3-c3cnc5c(c3)C(=O)N(CC3CC3)C5)[C@@H](F)CC4)cn2)CCCC1 (single isomer, unassigned) [Example 1B]"
3,0.039,"Cc1cc(-c2cnn(CC3(C)CCCC3)c2)c(-c2cnc3c(c2)C(=O)N(C)C3)nc1F [Example 1, 3-(6-Fluoro-5-methyl-3-(1-((1-methylcyclopentyl)methyl)-1H-pyrazol-4-yl)pyridin-2-yl)-6-methyl-6,7-dihydro-5H-pyrrolo[3,4-b]pyridin-5-one]"
4,0.016,"CN1Cc2ccc(-c3nc(C#N)ccc3-c3cnn(CC4(C)CCCC4)c3)cc2C1=O [Example 2, 6-(2-Methyl-3-oxoisoindolin-5-yl)-5-(1-((1-methylcyclopentyl)methyl)-1H-pyrazol-4-yl)picolinonitrile]"
5,0.038,"Cc1ccc(-c2cnn(CC3CCCC3)c2)c(-c2ccc3c(c2)C(=O)N(CC2CC2)C3)n1 [Example 3, 6-(3-(1-(cyclopentylmethyl)-1H-pyrazol-4-yl)-6-methylpyridin-2-yl)-2-(cyclopropylmethyl)isoindolin-1-one]"
6,0.037,"Cc1ccc(-c2cnn(CC3CCCC3)c2)c(-c2ccc3c(c2)C(=O)N(CCc2ccccc2)C3)n1 [Example 4, 6-(3-(1-(cyclopentylmethyl)-1H-pyrazol-4-yl)-6-methylpyridin-2-yl)-2-phenethylisoindolin-1-one]"
7,0.02,"Cc1ccc(-c2cnn(CC3CCCC3)c2)c(-c2ccc3c(c2)C(=O)N(CC2CCCO2)C3)n1 (centres unmarked) [Example 5, 6-(3-(1-(cyclopentylmethyl)-1H-pyrazol-4-yl)-6-methylpyridin-2-yl)-2-((tetrahydrofuran-2-yl)methyl)isoindolin-1-one]"
8,0.02,"Cc1ccc(-c2cnn(CC3CCCC3)c2)c(-c2ccc3c(c2)C(=O)N(C2CC2)C3)n1 [Example 6, 6-(3-(1-(cyclopentylmethyl)-1H-pyrazol-4-yl)-6-methylpyridin-2-yl)-2-cyclopropylisoindolin-1-one]"
9,0.022,"O=C1c2cc(-c3nccc(F)c3-c3cnn(CC4CCCC4)c3)ccc2CN1CC1CC1 [Example 7, 6-(3-(1-(cyclopentylmethyl)-1H-pyrazol-4-yl)-4-fluoropyridin-2-yl)-2-(cyclopropylmethyl)isoindolin-1-one]"
10,0.142,"O=C1c2cc(-c3ncccc3-c3cnn(CC4CCCC4)c3F)ccc2CN1CC1CC1 [Example 8, 6-(3-(1-(cyclopentylmethyl)-5-fluoro-1H-pyrazol-4-yl)pyridin-2-yl)-2-(cyclopropylmethyl)isoindolin-1-one]"
11,0.012,"Cc1ccc(-c2cnn(CC3CCCC3)c2F)c(-c2ccc3c(c2)C(=O)N(CC2CC2)C3)n1 [Example 9, 6-(3-(1-(cyclopentylmethyl)-5-fluoro-1H-pyrazol-4-yl)-6-methylpyridin-2-yl)-2-(cyclopropylmethyl)isoindolin-1-one]"
12,0.054,"CC1(Cn2cc(-c3cc4c(nc3-c3cnc5c(c3)C(=O)N(CC3CC3)C5)CCC4)cn2)CCCC1 [Example 10, 6-(cyclopropylmethyl)-3-(3-(1-((1-methylcyclopentyl)methyl)-1H-pyrazol-4-yl)-6,7-dihydro-5H-cyclopenta[b]pyridin-2-yl)-6,7-dihydro-5H-pyrrolo[3,4-b]pyridin-5-one]"
13,0.011,"CN1Cc2ccc(-c3nc(C#N)ccc3-c3cnn(CC4CCCC4)c3)cc2C1=O [Example 11, 5-(1-(cyclopentylmethyl)-1H-pyrazol-4-yl)-6-(2-methyl-3-oxoisoindolin-5-yl)picolinonitrile]"
14,0.348,"CNC(=O)c1ccc(-c2cnn(CC3CCCC3)c2)c(-c2ccc3c(c2)C(=O)N(CC2CC2)C3)n1 [Example 12, 5-(1-(cyclopentylmethyl)-1H-pyrazol-4-yl)-6-(2-(cyclopropylmethyl)-3-oxoisoindolin-5-yl)-N-methylpicolinamide]"
